Source: ChEMBL document CHEMBL4619760, “Anti-inflammatory Efficacy of Combined Natural Alkaloid Berberine and S1PR Modulator Fingolimod at Low Doses in Ulcerative Colitis Preclinical Models” (J Nat Prod, 2020)
The source made the active and inactive calls. The rule behind the calls is not given here.

Tests used:
[1] = test system: Mus musculus; test: Anti-colitis activity against DSS-induced C57BL/6 mouse model of subchronic relapsing colitis assessed as reduction in DSS-induced colon shortening at 0.15 mg/kg, po administered once daily for 14 days starting from day 5 post DSS-challenge cotreated with 20 mg/kg berberine and measured after day 12 to day 18; assay type: functional, organism-based
[2] = test system: Mus musculus; test: Anti-colitis activity against DSS-induced C57BL/6 mouse model of chronic relapsing colitis assessed as reduction in disease activity index at 0.3 mg/kg, po administered once daily for 30 days starting from day 13 post DSS-challenge and measured on day 24; assay type: functional, organism-based
[3] = test system: Mus musculus; test: Anti-colitis activity against DSS-induced C57BL/6 mouse model of chronic relapsing colitis assessed as reduction in stool bleeding at 0.15 mg/kg, po administered once daily for 30 days starting from day 13 post DSS-challenge cotreated with 20 mg/kg berberine and measured on day 38; assay type: functional, organism-based
[4] = test system: Mus musculus; test: Anti-colitis activity against DSS-induced C57BL/6 mouse model of subchronic relapsing colitis assessed as reduction in disease activity index at 0.15 mg/kg, po administered once daily for 14 days starting from day 5 post DSS-challenge cotreated with 20 mg/kg berberine measured after day 12 to day 18; assay type: functional, organism-based
[5] = test system: Mus musculus; test: Anti-colitis activity against DSS-induced C57BL/6 mouse model of chronic relapsing colitis assessed as reduction in stool bleeding at 0.3 mg/kg, po administered once daily for 30 days starting from day 13 post DSS-challenge measured on day 38; assay type: functional, organism-based
[6] = test system: Mus musculus; test: Anti-colitis activity against DSS-induced C57BL/6 mouse model of chronic relapsing colitis assessed as reduction in DSS-induced loss of colon crypt and columnar epithelium at 0.3 mg/kg, po administered once daily for 30 days starting from day 13 post DSS-challenge; assay type: functional, organism-based
[7] = test system: Mus musculus; test: Anti-colitis activity against DSS-induced C57BL/6 mouse model of subchronic relapsing colitis assessed as reduction in colon swelling at 0.15 mg/kg, po administered once daily for 14 days starting from day 5 post DSS-challenge cotreated with 20 mg/kg berberine and measured after day 12 to day 18; assay type: functional, organism-based
[8] = test system: Mus musculus; test: Effect on total STAT3 expression in DSS-induced C57BL/6 mouse model of subchronic relapsing colitis at 0.3 mg/kg, po administered once daily for 14 days starting from day 5 post DSS-challenge by Western blot analysis; assay type: ADME, organism-based; details: in vivo, 336 h
[9] = test system: Mus musculus; test: Anti-colitis activity against DSS-induced C57BL/6 mouse model of chronic relapsing colitis assessed as reduction in stool bleeding at 0.15 mg/kg, po administered once daily for 30 days starting from day 13 post DSS-challenge cotreated with 20 mg/kg berberine and measured on day 43; assay type: functional, organism-based
[10] = test system: Mus musculus; test: Antiinflammatory activity against DSS-induced C57BL/6 mouse model of subchronic relapsing colitis assessed as reduction in IL6 mRNA level at 0.15 mg/kg, po administered once daily for 14 days starting from day 5 post DSS-challenge cotreated with 20 mg/kg berberine by RT-qPCR analysis; assay type: functional, organism-based
[11] = test system: Mus musculus; test: Anti-colitis activity against DSS-induced C57BL/6 mouse model of subchronic relapsing colitis assessed as effect on body weight at 0.3 mg/kg, po administered once daily for 14 days starting from day 5 post DSS-challenge and measured after day 12 to day 18; assay type: functional, organism-based
[12] = test system: Mus musculus; test: Anti-colitis activity against DSS-induced C57BL/6 mouse model of chronic relapsing colitis assessed as reduction in DSS-induced mononuclear cell infiltration in spleen at 0.15 mg/kg, po administered once daily for 30 days starting from day 13 post DSS-challenge cotreated with 20 mg/kg berberine by hematoxylin and eosin staining based light microscopic analysis; assay type: functional, organism-based
[13] = test system: Mus musculus; test: Anti-colitis activity against DSS-induced C57BL/6 mouse model of chronic relapsing colitis assessed as reduction in stool consistency score at 0.3 mg/kg, po administered once daily for 30 days starting from day 13 post DSS-challenge measured on day 24; assay type: functional, organism-based
[14] = test system: Mus musculus; test: Antiinflammatory activity against DSS-induced C57BL/6 mouse model of subchronic relapsing colitis assessed as reduction in S1PR1 mRNA level at 0.15 mg/kg, po administered once daily for 14 days starting from day 5 post DSS-challenge cotreated with 20 mg/kg berberine by RT-qPCR analysis; assay type: functional, organism-based
[15] = test system: Mus musculus; test: Anti-colitis activity against DSS-induced C57BL/6 mouse model of subchronic relapsing colitis assessed as reduction in spleen swelling at 0.15 mg/kg, po administered once daily for 14 days starting from day 5 post DSS-challenge cotreated with 20 mg/kg berberine and measured after day 12 to day 18; assay type: functional, organism-based
[16] = Toxicity in DSS-induced C57BL/6 mouse model of chronic relapsing colitis assessed as induction of abnormalities in liver at 0.3 mg/kg, po administered once daily for 30 days starting from day 13 post DSS-challenge by hematoxylin and eosin staining based light microscopic analysis; assay type: organism-based; details: in vivo, 720 h
[17] = test system: Mus musculus; test: Effect on total S1PR1 expression in DSS-induced C57BL/6 mouse model of subchronic relapsing colitis at 0.15 mg/kg, po administered once daily for 14 days starting from day 5 post DSS-challenge cotreated with 20 mg/kg berberine by Western blot analysis; assay type: ADME, organism-based; details: in vivo, 336 h
[18] = test system: Mus musculus; test: Anti-colitis activity against DSS-induced C57BL/6 mouse model of chronic relapsing colitis assessed as reduction in stool consistency score at 0.15 mg/kg, po administered once daily for 30 days starting from day 13 post DSS-challenge cotreated with 20 mg/kg berberine measured on day 24; assay type: functional, organism-based
[19] = test system: Mus musculus; test: Anti-colitis activity against DSS-induced C57BL/6 mouse model of subchronic relapsing colitis assessed as reduction in colon swelling at 0.3 mg/kg, po administered once daily for 14 days starting from day 5 post DSS-challenge; assay type: functional, organism-based
[20] = test system: Mus musculus; test: Anti-colitis activity against DSS-induced C57BL/6 mouse model of chronic relapsing colitis assessed as reduction in DSS-induced multiple erosive lesions in colon at 0.15 mg/kg, po administered once daily for 30 days starting from day 13 post DSS-challenge cotreated with 20 mg/kg berberine by hematoxylin and eosin staining based light microscopic analysis; assay type: functional, organism-based
[21] = test system: Mus musculus; test: Anti-colitis activity against DSS-induced C57BL/6 mouse model of chronic relapsing colitis assessed as reduction in DSS-induced inflammatory cell infiltration in colon at 0.15 mg/kg, po administered once daily for 30 days starting from day 13 post DSS-challenge cotreated with 20 mg/kg berberine; assay type: functional, organism-based
[22] = test system: Mus musculus; test: Antiinflammatory activity against DSS-induced C57BL/6 mouse model of subchronic relapsing colitis assessed as reduction in S1PR1 mRNA level at 0.3 mg/kg, po administered once daily for 14 days starting from day 5 post DSS-challenge by RT-qPCR analysis; assay type: functional, organism-based
[23] = test system: Mus musculus; test: Anti-colitis activity against DSS-induced C57BL/6 mouse model of subchronic relapsing colitis assessed as reduction in DSS-induced colon swelling at 0.3 mg/kg, po administered once daily for 30 days starting from day 13 post DSS-challenge; assay type: functional, organism-based
[24] = test system: Mus musculus; test: Anti-colitis activity against DSS-induced C57BL/6 mouse model of subchronic relapsing colitis assessed as reduction in disease activity index at 0.3 mg/kg, po administered once daily for 14 days starting from day 5 post DSS challenge and measured on day 19; assay type: functional, organism-based
[25] = test system: Mus musculus; test: Anti-colitis activity against DSS-induced C57BL/6 mouse model of subchronic relapsing colitis assessed as reversal of DSS-induced colon shortening at 0.15 mg/kg, po administered once daily for 30 days starting from day 13 post DSS-challenge cotreated with 20 mg/kg berberine; assay type: functional, organism-based

SMILES: CCCCCCCCc1ccc(CCC(N)(CO)CO)cc1.Cl [FINGOLIMOD HYDROCHLORIDE]
- Activity [1]: Active
- Activity [2]: Active
- Activity [3]: Active
- Activity [4]: Active
- Activity [5]: Active
- Activity [6]: Active
- Activity [7]: inactive
- Activity [8]: Non-Toxic
- Activity [9]: Active
- Activity [10]: Active
- Activity [11]: inactive
- Activity [12]: Active
- Activity [13]: Active
- Activity [14]: Active
- Activity [15]: inactive
- Activity [16]: Non-Toxic
- Activity [17]: Non-Toxic
- Activity [18]: Active
- Activity [19]: inactive
- Activity [20]: Active
- Activity [21]: Active
- Activity [22]: Active
- Activity [23]: inactive
- Activity [24]: Active
- Activity [25]: Active
